Laboratory results reported in patent publication US11746116B2, “Antibiotic resistance breakers” (KING'S COLLEGE LONDON, priority 2017, dated 2023).
Converted amounts (≈) assume the structure as drawn.

How the values were obtained:
[1] = mouse, in vivo
[2] = target: Safetyscreen44 off target panel (Homo sapiens, UniProt P41143)
[3] = target: Safetyscreen44 off target panel (Homo sapiens, UniProt P28223)
[4] = target: Safetyscreen44 off target panel (Rattus norvegicus, UniProt P21396)
[5] = target: Safetyscreen44 off target panel (Homo sapiens, UniProt P21554)
[6] = target: Safetyscreen44 off target panel (Homo sapiens, UniProt P08172)
Safetyscreen44 off target panel (Homo sapiens, UniProt P08172), sequence (P08172 whole entry): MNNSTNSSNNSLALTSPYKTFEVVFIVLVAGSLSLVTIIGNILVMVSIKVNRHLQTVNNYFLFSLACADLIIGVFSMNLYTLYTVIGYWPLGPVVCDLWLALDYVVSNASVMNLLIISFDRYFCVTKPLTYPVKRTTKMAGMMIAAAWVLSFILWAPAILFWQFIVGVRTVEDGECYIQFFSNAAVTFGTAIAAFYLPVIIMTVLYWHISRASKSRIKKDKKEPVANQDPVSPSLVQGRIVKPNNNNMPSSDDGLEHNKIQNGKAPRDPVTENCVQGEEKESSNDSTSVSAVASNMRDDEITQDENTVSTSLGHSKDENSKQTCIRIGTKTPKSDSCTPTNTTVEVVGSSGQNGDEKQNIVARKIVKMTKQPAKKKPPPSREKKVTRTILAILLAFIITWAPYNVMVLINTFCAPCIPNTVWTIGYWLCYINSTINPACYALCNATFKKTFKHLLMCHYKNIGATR

[7] = test system: Safetyscreen44 off target panel
[8] = target: Safetyscreen44 off target panel (Homo sapiens, UniProt P20309)
[9] = target: Safetyscreen44 off target panel (Homo sapiens, UniProt Q01959)
[10] = target: Safetyscreen44 off target panel (Homo sapiens, UniProt P07550)
Safetyscreen44 off target panel (Homo sapiens, UniProt P07550), sequence (P07550 whole entry): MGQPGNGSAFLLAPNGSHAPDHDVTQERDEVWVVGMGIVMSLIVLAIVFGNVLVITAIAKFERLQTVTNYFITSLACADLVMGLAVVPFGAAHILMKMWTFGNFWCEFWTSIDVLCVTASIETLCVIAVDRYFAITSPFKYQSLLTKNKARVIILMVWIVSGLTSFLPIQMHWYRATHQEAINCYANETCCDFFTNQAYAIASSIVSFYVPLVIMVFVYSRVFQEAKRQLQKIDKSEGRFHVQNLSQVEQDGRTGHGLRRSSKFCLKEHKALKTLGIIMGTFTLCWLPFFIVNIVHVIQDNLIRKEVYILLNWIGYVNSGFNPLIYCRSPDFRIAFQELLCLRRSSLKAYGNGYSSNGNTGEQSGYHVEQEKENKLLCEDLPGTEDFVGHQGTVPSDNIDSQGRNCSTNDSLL

[11] = target: Safetyscreen44 off target panel (Homo sapiens, UniProt P25021)
[12] = target: Safetyscreen44 off target panel (Homo sapiens, UniProt P08588)
Safetyscreen44 off target panel (Homo sapiens, UniProt P08588), sequence (P08588 whole entry): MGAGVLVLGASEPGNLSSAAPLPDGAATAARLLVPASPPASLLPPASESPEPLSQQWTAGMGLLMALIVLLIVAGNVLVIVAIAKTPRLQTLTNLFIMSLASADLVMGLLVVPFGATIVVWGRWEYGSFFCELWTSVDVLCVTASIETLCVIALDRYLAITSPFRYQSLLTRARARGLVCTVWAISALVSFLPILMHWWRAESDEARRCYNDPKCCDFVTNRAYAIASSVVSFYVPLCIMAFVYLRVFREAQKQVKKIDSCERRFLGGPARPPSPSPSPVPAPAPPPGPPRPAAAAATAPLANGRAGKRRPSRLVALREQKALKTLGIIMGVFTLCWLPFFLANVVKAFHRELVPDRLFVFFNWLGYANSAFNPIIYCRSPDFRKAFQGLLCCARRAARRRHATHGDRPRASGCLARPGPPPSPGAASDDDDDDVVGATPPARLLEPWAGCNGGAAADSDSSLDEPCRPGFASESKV

[13] = target: Safetyscreen44 off target panel (Homo sapiens, UniProt P34972)
[14] = target: Safetyscreen44 off target panel (Homo sapiens, UniProt P04150)
[15] = target: Safetyscreen44 off target panel (Homo sapiens, UniProt P35354)
Safetyscreen44 off target panel (Homo sapiens, UniProt P35354), sequence (P35354 18-604): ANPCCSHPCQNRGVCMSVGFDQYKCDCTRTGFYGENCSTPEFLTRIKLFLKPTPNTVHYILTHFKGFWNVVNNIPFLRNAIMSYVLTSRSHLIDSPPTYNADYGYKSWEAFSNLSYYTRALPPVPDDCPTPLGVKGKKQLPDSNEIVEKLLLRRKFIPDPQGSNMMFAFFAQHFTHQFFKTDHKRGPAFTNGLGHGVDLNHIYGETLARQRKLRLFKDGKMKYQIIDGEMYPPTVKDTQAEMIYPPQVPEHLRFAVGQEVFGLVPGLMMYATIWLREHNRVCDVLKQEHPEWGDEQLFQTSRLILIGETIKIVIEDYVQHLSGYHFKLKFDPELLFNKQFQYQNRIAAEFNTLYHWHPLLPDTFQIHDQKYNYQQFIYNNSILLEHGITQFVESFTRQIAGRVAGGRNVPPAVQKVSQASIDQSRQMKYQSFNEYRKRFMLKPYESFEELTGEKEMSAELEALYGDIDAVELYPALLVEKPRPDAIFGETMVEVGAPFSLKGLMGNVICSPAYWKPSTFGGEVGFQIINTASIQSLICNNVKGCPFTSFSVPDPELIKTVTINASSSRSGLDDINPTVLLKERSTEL

[16] = target: Safetyscreen44 off target panel (Homo sapiens, UniProt P10275)
[17] = target: Safetyscreen44 off target panel (Homo sapiens, UniProt P11229)
[18] = target: Safetyscreen44 off target panel (Homo sapiens, UniProt P43681)
Safetyscreen44 off target panel (Homo sapiens, UniProt P43681), sequence (P43681 27-627): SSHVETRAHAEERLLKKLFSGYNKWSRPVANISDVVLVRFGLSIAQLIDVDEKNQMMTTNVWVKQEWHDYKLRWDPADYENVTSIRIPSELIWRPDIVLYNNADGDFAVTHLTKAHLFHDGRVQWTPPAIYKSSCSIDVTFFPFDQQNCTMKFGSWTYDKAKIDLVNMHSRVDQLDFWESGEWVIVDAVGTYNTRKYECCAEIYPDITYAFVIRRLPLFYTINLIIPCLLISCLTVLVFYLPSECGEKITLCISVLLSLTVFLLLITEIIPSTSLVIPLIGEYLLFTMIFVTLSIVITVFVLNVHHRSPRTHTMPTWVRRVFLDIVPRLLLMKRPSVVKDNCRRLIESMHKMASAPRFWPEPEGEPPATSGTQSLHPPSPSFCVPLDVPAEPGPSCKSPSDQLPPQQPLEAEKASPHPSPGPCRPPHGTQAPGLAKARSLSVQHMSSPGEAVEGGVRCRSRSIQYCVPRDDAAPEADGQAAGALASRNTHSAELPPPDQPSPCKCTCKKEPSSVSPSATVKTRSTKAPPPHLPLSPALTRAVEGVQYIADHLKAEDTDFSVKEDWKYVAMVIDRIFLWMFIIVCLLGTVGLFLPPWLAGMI

[19] = target: Safetyscreen44 off target panel (Rattus norvegicus, UniProt P34975)
[20] = target: Safetyscreen44 off target panel (Homo sapiens, UniProt P35367)
[21] = target: Safetyscreen44 off target panel (Homo sapiens, UniProt P46098)
[22] = target: Safetyscreen44 off target panel (Homo sapiens, UniProt P41595)
Safetyscreen44 off target panel (Homo sapiens, UniProt P41595), sequence (P41595 whole entry): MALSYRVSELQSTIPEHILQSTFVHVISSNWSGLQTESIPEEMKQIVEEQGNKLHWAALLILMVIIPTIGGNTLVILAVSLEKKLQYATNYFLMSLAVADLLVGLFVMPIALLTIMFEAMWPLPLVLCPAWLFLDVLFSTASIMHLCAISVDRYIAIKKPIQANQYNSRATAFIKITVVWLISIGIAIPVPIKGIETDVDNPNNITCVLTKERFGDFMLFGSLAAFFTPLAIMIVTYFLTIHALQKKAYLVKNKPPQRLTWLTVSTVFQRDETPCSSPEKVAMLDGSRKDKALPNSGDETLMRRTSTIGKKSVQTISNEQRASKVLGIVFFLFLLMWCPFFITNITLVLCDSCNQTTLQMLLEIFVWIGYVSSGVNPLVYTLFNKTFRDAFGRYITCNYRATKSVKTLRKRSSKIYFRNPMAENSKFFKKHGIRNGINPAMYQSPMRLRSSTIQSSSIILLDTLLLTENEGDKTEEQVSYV

[23] = target: Safetyscreen44 off target panel (Homo sapiens, UniProt P08908)
[24] = target: Safetyscreen44 off target panel (Homo sapiens, UniProt P25101)
[25] = target: Safetyscreen44 off target panel (Homo sapiens, UniProt Q14432)
[26] = target: Safetyscreen44 off target panel (Homo sapiens, UniProt P35372)
[27] = target: Safetyscreen44 off target panel (Homo sapiens, UniProt P32238)
[28] = target: Safetyscreen44 off target panel (Homo sapiens, UniProt P29274)
[29] = target: Safetyscreen44 off target panel (Homo sapiens, UniProt P23975)
[30] = target: Safetyscreen44 off target panel (Homo sapiens, UniProt P23219)
[31] = target: Safetyscreen44 off target panel (Homo sapiens, UniProt P22303)
Safetyscreen44 off target panel (Homo sapiens, UniProt P22303), sequence (P22303 32-614): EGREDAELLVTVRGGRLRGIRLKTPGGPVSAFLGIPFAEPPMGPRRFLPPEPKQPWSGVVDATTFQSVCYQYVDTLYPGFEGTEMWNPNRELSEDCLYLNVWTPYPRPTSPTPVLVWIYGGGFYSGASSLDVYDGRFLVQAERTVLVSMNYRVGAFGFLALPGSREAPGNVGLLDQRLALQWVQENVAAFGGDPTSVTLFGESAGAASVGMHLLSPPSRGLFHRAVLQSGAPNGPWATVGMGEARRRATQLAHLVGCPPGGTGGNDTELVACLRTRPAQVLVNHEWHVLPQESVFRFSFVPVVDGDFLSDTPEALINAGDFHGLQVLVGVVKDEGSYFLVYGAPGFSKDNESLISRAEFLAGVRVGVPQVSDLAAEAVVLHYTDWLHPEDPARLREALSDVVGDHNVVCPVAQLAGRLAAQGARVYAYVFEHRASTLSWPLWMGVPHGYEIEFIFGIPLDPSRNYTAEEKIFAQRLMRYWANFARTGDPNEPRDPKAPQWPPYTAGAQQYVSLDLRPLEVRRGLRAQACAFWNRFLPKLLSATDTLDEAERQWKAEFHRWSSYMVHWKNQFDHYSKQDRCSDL

[32] = target: Safetyscreen44 off target panel (Rattus norvegicus, UniProt P28564)
[33] = target: Safetyscreen44 off target panel (Homo sapiens, UniProt P37288)
Safetyscreen44 off target panel (Homo sapiens, UniProt P37288), sequence (P37288 whole entry): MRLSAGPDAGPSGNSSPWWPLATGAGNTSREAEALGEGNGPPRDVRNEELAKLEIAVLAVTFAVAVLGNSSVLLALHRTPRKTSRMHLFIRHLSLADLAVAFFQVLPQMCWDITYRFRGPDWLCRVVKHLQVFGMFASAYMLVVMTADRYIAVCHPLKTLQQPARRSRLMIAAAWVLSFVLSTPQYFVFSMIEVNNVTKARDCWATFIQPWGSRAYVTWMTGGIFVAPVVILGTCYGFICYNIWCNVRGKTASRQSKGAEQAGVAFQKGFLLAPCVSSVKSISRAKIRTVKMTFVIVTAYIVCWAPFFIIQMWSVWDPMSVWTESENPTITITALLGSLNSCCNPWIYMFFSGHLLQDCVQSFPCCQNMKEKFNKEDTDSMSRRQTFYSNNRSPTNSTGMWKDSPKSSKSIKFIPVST

EMRSA16 = experiment: MIC, microdilution broth method; assay type: cell-based, Staphylococcus aureus; conditions: for MIC, EMRSA16: in µg/mL
VRE12201 = experiment: MIC, microdilution broth method; assay type: cell-based, Enterococcus faecalis
M6 = experiment: MIC, microdilution broth method; assay type: cell-based
EMRSA15 = experiment: MIC, microdilution broth method; assay type: cell-based, Staphylococcus aureus

Safetyscreen44 off target panel (Homo sapiens, UniProt P41143), sequence (P41143 whole entry): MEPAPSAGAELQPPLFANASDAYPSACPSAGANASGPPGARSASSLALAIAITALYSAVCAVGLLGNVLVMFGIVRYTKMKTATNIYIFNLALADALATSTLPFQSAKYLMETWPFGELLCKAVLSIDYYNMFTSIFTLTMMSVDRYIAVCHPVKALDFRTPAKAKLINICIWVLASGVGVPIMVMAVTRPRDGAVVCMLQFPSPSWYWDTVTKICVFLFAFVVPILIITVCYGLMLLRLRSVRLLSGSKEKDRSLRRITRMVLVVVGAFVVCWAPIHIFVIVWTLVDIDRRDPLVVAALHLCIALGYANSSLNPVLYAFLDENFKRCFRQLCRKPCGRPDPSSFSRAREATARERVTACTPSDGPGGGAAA
Safetyscreen44 off target panel (Rattus norvegicus, UniProt P21396), sequence (P21396 whole entry): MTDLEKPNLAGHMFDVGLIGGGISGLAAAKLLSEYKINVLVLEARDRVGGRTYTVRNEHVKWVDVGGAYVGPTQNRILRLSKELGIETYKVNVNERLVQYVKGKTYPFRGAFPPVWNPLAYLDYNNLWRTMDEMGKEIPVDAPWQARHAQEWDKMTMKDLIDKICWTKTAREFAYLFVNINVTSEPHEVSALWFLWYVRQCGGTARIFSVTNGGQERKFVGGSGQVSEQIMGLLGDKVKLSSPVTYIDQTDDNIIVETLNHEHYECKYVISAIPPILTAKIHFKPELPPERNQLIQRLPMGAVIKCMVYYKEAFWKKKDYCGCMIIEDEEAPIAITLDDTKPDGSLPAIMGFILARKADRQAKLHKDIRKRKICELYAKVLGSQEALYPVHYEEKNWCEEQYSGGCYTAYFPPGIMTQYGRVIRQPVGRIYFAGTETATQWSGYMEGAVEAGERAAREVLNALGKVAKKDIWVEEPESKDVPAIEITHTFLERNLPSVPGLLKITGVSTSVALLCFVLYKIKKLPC

**Q.** With `C[C@H]1COc2c(N3CC[C@@H](Nc4ncccn4)C3)c(F)cc3c(=O)c(C(=O)O)cn1c23` [KSN-82-L22] as the compound, how does the “Bioavailability Using AUCinf” value ([1]; male, CD-1 (ICR)) read?
**A.** Its value is 49-3%.

**Q.** What about the “Bioavailability Using AUCo.t” value ([1]; male, CD-1 (ICR)) of the same compound?
**A.** The value was 32.0%.

**Q.** What about the AUGinf ([1]; male, CD-1 (ICR), po, 20 mg/kg) of the same compound?
**A.** The AUGinf was 13203 ng·h/mL.

**Q.** What about the T½ ([1]; po, 20 mg/kg) of the same compound?
**A.** Its T½ is 5-1 h.

**Q.** And the “% inhibition, delta (DOP) (h) (agonist radioligand)” value [2]?
**A.** Its value is 2.159%.

**Q.** What about the “% inhibition, 5-HT2A (h) (agonist radioligand)” value [3] of the same compound?
**A.** Its value is −8.881%.

**Q.** What about the “% inhibition, MAO-A (antagonist radioligand)” value [4] of the same compound?
**A.** The value was −9.13%.

**Q.** What about the “% inhibition, CB1 (h) (agonist radioligand)” value [5] of the same compound?
**A.** The value was 1.857%.

**Q.** What about the “% inhibition, M2 (h) (antagonist radioligand)” value [6] of the same compound?
**A.** Its value is 1.066%.

**Q.** And the “% inhibition, BZD (central) (agonist radioligand)” value [7]?
**A.** Its value is −44.8289%.

**Q.** What about the “% inhibition, Ca2+ channel (L, dihydropyridine site) (antagonist radioligand)” value [7] of the same compound?
**A.** Its value is 6.049%.

**Q.** And the “% inhibition, D2S (h) (agonist radioligand)” value [7]?
**A.** Its value is −7.807%.

**Q.** And the “% inhibition, NMDA (antagonist radioligand)” value [7]?
**A.** Its value is 12.6124%.

**Q.** What about the “% inhibition, Na+ channel (site 2) (antagonist radioligand)” value [7] of the same compound?
**A.** Its value is 23.6539%.

**Q.** What about the “% inhibition, PDE4D2 (h)” value [7] of the same compound?
**A.** The value was 14.8003%.

**Q.** And the “% inhibition, alpha 1A (h) (antagonist radioligand)” value [7]?
**A.** The value was 11.5312%.

**Q.** What about the “% inhibition, M3 (h) (antagonist radioligand)” value [8] of the same compound?
**A.** The value was 2.273%.

**Q.** What about the “% inhibition, dopamine transporter (h) (antagonist radioligand)” value [9] of the same compound?
**A.** The value was 10.0257%.

**Q.** And the “% inhibition, beta 2 (h) (antagonist radioligand)” value [10]?
**A.** The value was 11.3086%.

**Q.** And the “% inhibition, H2 (h) (antagonist radioligand)” value [11]?
**A.** The value was −40.1709%.

**Q.** What about the “% inhibition, beta 1 (h) (agonist radioligand)” value [12] of the same compound?
**A.** The value was 1.921%.

**Q.** What about the “% inhibition, CB2 (h) (agonist radioligand)” value [13] of the same compound?
**A.** The value was 0%.

**Q.** And the “% inhibition, GR (h) (agonist radioligand)” value [14]?
**A.** Its value is 3.456%.

**Q.** And the “% inhibition, COX2(h)” value [15]?
**A.** Its value is 8.111%.

**Q.** What about the “% inhibition, AR (h) (agonist radioligand)” value [16] of the same compound?
**A.** Its value is 4.241%.

**Q.** What about the “% inhibition, M1 (h) (antagonist radioligand)” value [17] of the same compound?
**A.** Its value is 3.129%.

**Q.** And the “% inhibition, N neuronal alpha 4beta 2 (h) (agonist radioligand)” value [18]?
**A.** Its value is −41.8108%.

**Q.** What about the “% inhibition, kappa (KOP) (agonist radioligand)” value [19] of the same compound?
**A.** The value was 27.3513%.

**Q.** And the “% inhibition, H1 (h) (antagonist radioligand)” value [20]?
**A.** Its value is 5.564%.

**Q.** And the “% inhibition, 5-HT3 (h) (antagonist radioligand)” value [21]?
**A.** The value was −4.708%.

**Q.** What about the “% inhibition, 5-HT2B (h) (agonist radioligand)” value [22] of the same compound?
**A.** The value was 5.374%.

**Q.** And the “% inhibition, 5-HT1A(h) (agonist radioligand)” value [23]?
**A.** Its value is −3.77%.

**Q.** And the “% inhibition, ETA (h) (agonist radioligand)” value [24]?
**A.** Its value is −5.236%.

**Q.** And the “% inhibition, PDE3A (h)” value [25]?
**A.** Its value is 7.502%.

**Q.** What about the “% inhibition, mu (MOP) (h) (agonist radioligand)” value [26] of the same compound?
**A.** Its value is 6.535%.

**Q.** What about the “% inhibition, CCK1 (CCKA) (h) (agonist radioligand)” value [27] of the same compound?
**A.** The value was −2.038%.

**Q.** What about the “% inhibition, A2A (h) (agonist radioligand)” value [28] of the same compound?
**A.** The value was 53.628%.

**Q.** And the “% inhibition, norepinephrine transporter (h) (antagonist radioligand)” value [29]?
**A.** The value was −6.471%.

**Q.** What about the “% inhibition, COX1 (h)” value [30] of the same compound?
**A.** Its value is 30.3185%.

**Q.** And the “% inhibition, acetylcholinesterase (h)” value [31]?
**A.** Its value is 32.9861%.

**Q.** And the “% inhibition, 5-HT1B (antagonist radioligand)” value [32]?
**A.** Its value is −16.7063%.

**Q.** What about the “% inhibition, V1a (h) (agonist radioligand)” value [33] of the same compound?
**A.** The value was −12.5662%.

**Q.** Which “MIC, EMRSA16” value (EMRSA16; EMRSA16 (Table 16, role of the terminal pyrimidine ring)) does the source give for `Cc1cc(C)nc(N[C@@H]2CCN(c3c(F)cc4c(=O)c(C(=O)O)cn5c4c3OC[C@@H]5C)C2)n1` [KSN-BL7, (S)-10-((R)-3-((4,6-dimethylpyrimidin-2-yl)amino)pyrrolidin-1-yl)-9-fluoro-3-methyl-7-oxo-2,3-dihydro-7H-[1,4]oxazino[2,3,4-ij]quinoline-6-carboxylic acid] here?
**A.** Its value is 0.25-0.5.

**Q.** What about the “MIC, EMRSA16” value (EMRSA16; ESKAPE panel, Gram-positive) of the same compound?
**A.** The value was 0.25.

**Q.** What about the MIC (EMRSA16; Staphylococcus aureus) of the same compound?
**A.** Its MIC is 0.25 µg/mL (≈ 0.551 µM).

**Q.** What about the “MIC, VRE12201” value (VRE12201; ESKAPE panel, Gram-positive, in µg/mL) of the same compound?
**A.** Its value is 0.0313.

**Q.** What about the MIC (VRE12201; Enterococcus faecalis) of the same compound?
**A.** Its MIC is 0.03 µg/mL (≈ 0.0662 µM).

**Q.** What about the “MIC, M6” value (M6; ESKAPE panel, Gram-negative, in µg/mL) of the same compound?
**A.** Its value is 2.

**Q.** What about the MIC (M6; Klebsiella pneumoniae) of the same compound?
**A.** The MIC was 2 µg/mL (≈ 4.41 µM).

**Q.** And the “MIC, EMRSA15” value (EMRSA15; EMRSA15 (Table 16, role of the terminal pyrimidine ring), in µg/mL)?
**A.** The value was 0.125-0.25.

**Q.** What about the “MIC, EMRSA15” value (EMRSA15; ESKAPE panel, Gram-positive) of the same compound?
**A.** Its value is 0.125-.

**Q.** And the MIC (EMRSA15; Staphylococcus aureus)?
**A.** Its MIC is 0.125 µg/mL (≈ 0.276 µM).
